Measurements from patent publication US4661487A (priority 1984, dated 1987).
Values joined by “and” are separate entries in the source; they are usually repeats but may differ in a detail not shown here. Identical values can stand only once. Counter-ions that a name gives are not always drawn.

Assays:
[1] = tested on: spontaneously hypertensive rats; assay: Hypotensive action (systolic blood pressure, W+W Recorder 8002) in spontaneously hypertensive rats; type: in vivo, spontaneously hypertensive rats (SHR rats)
Protocol: (§1) The substances were administered orally with a probang to fasting spontaneously hypertensive rats. The animals were fasted 17 hours before the start of the experiment. All the substances were dissolved in 1% strength carboxymethylcellulose (MH 300), and the administration volume was 10 ml/kg. The starting values of the blood pressure and heart rate were recorded directly before the administration. The action of the substance was measured 1, 2, 4, 7 and 24 hours after the administration. The measurement was performed non-invasively with a W+W Recorder 8002, it being possible to measure the systolic blood pressure and the heart rate. The animals were offered food again 4 hours after administration of the substance. The values can be seen from Table 1, page 5. […] The experiment was carried out by the same method as in Example 1, and the values can be seen in Table 2.

[2] = tested on: spontaneously hypertensive rats; assay: Heart rate-modifying action in spontaneously hypertensive rats; type: in vivo, spontaneously hypertensive rats (SHR rats)
Protocol: as §1

[3] = tested on: collagen-induced aggregation of human platelets; assay: Inhibition of collagen-induced aggregation of human platelets in vitro (method of Born, platelet-rich human plasma); type: cell-based
Protocol: Inhibition of the collagen-induced aggregation of human platelets by the combination of 4,5-dihydro-6-[4-(1-imidazolyl)-thien-2-yl]-5-methyl-3(2H)-pyridazinone hydrochloride (D) with lofexidine (A).
The inhibition of collagen-induced platelet aggregation in vitro was carried out by the method of Born (Nature, 194, 927-929 (1962)) on platelet-rich human plasma with 4,5-dihydro-6-[4-(1-imidazolyl)-thien-2-yl]-5-methyl-3(2H)-pyridazinone hydrochloride (D), lofexidine (A) and with mixtures of A and D.
In each case the mean value of 4 independent determinations has been given. In the investigations of the mixtures, the concentration of A was constant at 1×10^-5 mole/l.

[4] = peripheral vasodilation; cited from earlier work

In the case of `CC(Oc1c(Cl)cccc1Cl)C1=NCCN1.Cl` (racemic) [Substance A, (±)-2-[1-(2,6-dichlorophenoxy)-ethyl]-1,3-diazacyclopent-2-ene hydrochloride], the “Systolic blood pressure, Δ after administration of the substance” value (“Systolic blood pressure, Δ” below) ([1]; 0.1 mg/kg p.o., 1 hour) is reported as -18.8 ± 16.6 mmHg, the “Systolic blood pressure, Δ” value ([1]; 0.1 mg/kg p.o., 2 hours) is reported as -4.0 ± 18.6 mmHg and the “Systolic blood pressure, Δ” value ([1]; 0.1 mg/kg p.o., 4 hours) is reported as -11.8 ± 23.2 mmHg. For the same compound, the “Systolic blood pressure, Δ” value ([1]; 0.1 mg/kg p.o., 7 hours) was -10.8 ± 26.9 mmHg, the “Systolic blood pressure, Δ” value ([1]; 1.0 mg/kg p.o., 1 hour) was -28.4 ± 13.1 mmHg and the “Systolic blood pressure, Δ” value ([1]; 1.0 mg/kg p.o., 2 hours) was -22.8 ± 11.8 mmHg. For the same compound, the “Systolic blood pressure, Δ” value ([1]; 1.0 mg/kg p.o., 4 hours) was -23.6 ± 15.5 mmHg, the “Systolic blood pressure, Δ” value ([1]; 1.0 mg/kg p.o., 7 hours) was -22.2 ± 17.4 mmHg and the “Heart rate, Δ after administration of the substance” value (“Heart rate, Δ after administration” below) ([2]; 0.1 mg/kg p.o., 1 hour) was “+10 ± 13 beats/minute”. For the same compound, the “Heart rate, Δ after administration” value ([2]; 0.1 mg/kg p.o., 2 hours) was “+37 ± 27 beats/minute”, the “Heart rate, Δ after administration” value ([2]; 0.1 mg/kg p.o., 4 hours) was “+12 ± 12 beats/minute” and the “Heart rate, Δ after administration” value ([2]; 0.1 mg/kg p.o., 7 hours) was -14 ± 12 beats/minute. For the same compound, the “Heart rate, Δ after administration” value ([2]; 1.0 mg/kg p.o., 1 hour, hydrochloride) was -22 ± 18 beats/minute and -22 ± 8 beats/minute, the “Heart rate, Δ after administration” value ([2]; 1.0 mg/kg p.o., 2 hours) was -6 ± 13 beats/minute and the “Heart rate, Δ after administration” value ([2]; 1.0 mg/kg p.o., 4 hours) was -2 ± 15 beats/minute. The “Heart rate, Δ after administration” value ([2]; 1.0 mg/kg p.o., 7 hours) was -10 ± 16 beats/minute and the “% inhibition of collagen-induced platelet aggregation” value ([3]; A at 1 × 10^-5 mole/l, D 0, mean of 4 determinations) was 3%.
For `CC1CC(=O)NN=C1c1ccc(-n2ccnc2)cc1` (stereo not drawn) [Substance B, 4,5-dihydro-6-[4-(1-imidazolyl)-phenyl]-5-methyl-3(2H)-pyridazinone], the “Systolic blood pressure, Δ” value ([1]; 10.0 mg/kg p.o., 1 hour) was -95.4 ± 3.4 mmHg, the “Systolic blood pressure, Δ” value ([1]; 10.0 mg/kg p.o., 2 hours) was -97.2 ± 4.6 mmHg and the “Systolic blood pressure, Δ” value ([1]; 10.0 mg/kg p.o., 4 hours) was -98.4 ± 5.6 mmHg. The “Systolic blood pressure, Δ” value ([1]; 10.0 mg/kg p.o., 7 hours) was -93.0 ± 5.6 mmHg, the “Systolic blood pressure, Δ” value ([1]; 10.0 mg/kg p.o., 24 hours) was -35.8 ± 6.6 mmHg and the “Heart rate, Δ after administration” value ([2]; 10.0 mg/kg p.o., 1 hour) was “+113 ± 14 beats/minute”. The “Heart rate, Δ after administration” value ([2]; 10.0 mg/kg p.o., 2 hours) was “+108 ± 10 beats/minute”, the “Heart rate, Δ after administration” value ([2]; 10.0 mg/kg p.o., 4 hours) was “+85 ± 21 beats/minute” and the “Heart rate, Δ after administration” value ([2]; 10.0 mg/kg p.o., 7 hours) was “+129 ± 24 beats/minute”. For the same compound, the “Heart rate, Δ after administration” value ([2]; 10.0 mg/kg p.o., 24 hours) was “+16 ± 16 beats/minute”.
For `CC1CC(=O)NN=C1c1cc(-n2ccnc2)cs1` (stereo not drawn) [Substance C, 4,5-dihydro-6-[4-(1-imidazolyl)-thien-2-yl]-5-methyl-3(2H)-pyridazinone], the “Systolic blood pressure, Δ” value ([1]; 10.0 mg/kg p.o., 1 hour) was -48.1 ± 16.2 mmHg, the “Systolic blood pressure, Δ” value ([1]; 10.0 mg/kg p.o., 2 hours) was -66.2 9.9 mmHg and the “Systolic blood pressure, Δ” value ([1]; 10.0 mg/kg p.o., 4 hours) was -93.9 ± 6.8 mmHg. For the same compound, the “Systolic blood pressure, Δ” value ([1]; 10.0 mg/kg p.o., 7 hours) was -98.9 ± 9.1 mmHg, the “Heart rate, Δ after administration” value ([2]; 10.0 mg/kg p.o., 1 hour) was “+104 ± 21 beats/minute” and the “Heart rate, Δ after administration” value ([2]; 10.0 mg/kg p.o., 2 hours) was “+91 ± 10 beats/minute”. The “Heart rate, Δ after administration” value ([2]; 10.0 mg/kg p.o., 4 hours) was “+70 ± 12 beats/minute” and the “Heart rate, Δ after administration” value ([2]; 10.0 mg/kg p.o., 7 hours) was “+36 ± 13 beats/minute”.
With `CC1CC(=O)NN=C1c1cc(-n2ccnc2)cs1` (stereo not drawn) [Substance D, 4,5-dihydro-6-[4-(1-imidazolyl)-thien-2-yl]-5-methyl-3(2H)-pyridazinone hydrochloride] the IC50 ([3]; Homo sapiens, Platelet, read-out: concentration for a half-maximum inhibition (IC50) of the collagen-induced platelet aggregation) was 46 nM.
For `NNc1nnc(NN)c2ccccc12` [dihydralazine], the “side effect in hypertension therapy” value [4] is given as “reflex tachycardia”.
In the case of `NNc1nncc2ccccc12` [hydralazine], the “side effect in hypertension therapy” value [4] is given as “reflex tachycardia”.
For `Nc1cc(N2CCCCC2)nc(N)[n+]1[O-]` [minoxidil], the “side effect in hypertension therapy” value [4] is given as “reflex tachycardia”.
